Measurements: patent publication US20250302974A1, “LECTIN-DRUG CONJUGATES” (UNICHEM LABORATORIES LIMITED, priority 2021, published 2025)
Numbered stars: 1 amine (or outer) side, 2 acyl side, 3 side chain; on linkers, the order of the positions; unused ones are H or OH. Square brackets hold non-standard residues; d marks the D form. Peptide text beside a SMILES is read from it. * marks the point of attachment. Dolaproine = CO[C@@H]([C@@H]1CCCN1)[C@@H](C)C(=O)O; Hexanoyl(6-maleimido) = O=C1C=CC(=O)N1CCCCCC(=O)*; Dil = CC[C@H](C)[C@H](NC)[C@@H](CC(=O)O)OC; PABC = O=C(OCc1ccc(N[*:1])cc1)[*:2]; X1 = C[C@@H](N*)[C@@H](O)c1ccccc1; Cit = NC(=O)NCCC[C@H](N)C(=O)O; NMeV = CN[C@H](C(=O)O)C(C)C

Assays:
[1] = biological target: Sclerotium rolfsii lectin recombinant variant Rec-2, SEQ ID NO: 2 (Agroathelia rolfsii, UniProt A0A0M3KL30); assay: O-Glycan array binding study (94 glycans)
MG-63 Bone = assay: Cytotoxic effect by MTT assay, 48 h; conditions: for Percent cytotoxicity wrt control: 48 h
Method: (§1) Cells were treated with Test Items at various concentrations (0.0001 μM-10 μM) for 48 h. The cells corresponding to Positive Control group were treated with Doxorubicin at a concentration ranging from 0.1 μM-100 μM. The Untreated cells were used as Control. After 48 h of incubation, the effect of Test Items on cytotoxicity of cells was determined by MTT assay, the plates were taken out and 20 μl of 5 mg/m1 of MTT 3-(4,5-dimethythiazol-2-yl)-2,5-diphenyl tetrazolium bromide solution was added to all the wells. Cells were incubated for 3 h at 37° C. The supernatant was aspirated. 150 μl of DMSO was added to each well to dissolve formazan crystals. The absorbance of each well was then read at 540 nm using Synergy HT micro plate reader.
(§2) The % Cytotoxicity was calculated using the formula:
(§3) Where, X=Absorbance of cells treated with Test Item; R=Absorbance of Control cells (Untreated cells maintained in growth medium only).
(§4) Selectivity Index was calculated using the formula:
(§5) SI=IC50 in Normal cell/IC50 in cancer cell.
(§6) Activity scores of the Selective Index values were categorized as: • Not selective (SI value ≤1) • Moderately selective (1<SI value <5) • Selective (SI value ≥5)

AGS Stomach = assay: Cytotoxic effect by MTT assay, 48 h; conditions: AGS, 48 h
Method: as §1, §2, §3, §4, §5, §6

MDA-MB-231 Breast = assay: Cytotoxic effect by MTT assay, 48 h; conditions: for Percent cytotoxicity wrt control: 48 h
Method: as §1, §2, §3, §4, §5, §6

T24 Bladder = assay: Cytotoxic effect by MTT assay, 48 h; conditions: for Percent cytotoxicity wrt control: 48 h
Method: as §1, §2, §3, §4, §5, §6

U251 MG Brain = assay: Cytotoxic effect by MTT assay, 48 h; conditions: for Percent cytotoxicity wrt control: U251 MG, 48 h
Method: as §1, §2, §3, §4, §5, §6

PA-1 Ovary = assay: Cytotoxic effect by MTT assay, 48 h; conditions: for Percent cytotoxicity wrt control: 48 h
Method: as §1, §2, §3, §4, §5, §6

HT29 Colon = assay: Cytotoxic effect by MTT assay, 48 h; conditions: for Percent cytotoxicity wrt control: 48 h
Method: as §1, §2, §3, §4, §5, §6

PANC-1 Pancreatic = assay: Cytotoxic effect by MTT assay, 48 h; conditions: for Percent cytotoxicity wrt control: 48 h
Method: as §1, §2, §3, §4, §5, §6

KB Cervix = assay: Cytotoxic effect by MTT assay, 48 h; conditions: for Percent cytotoxicity wrt control: KB, 48 h
Method: as §1, §2, §3, §4, §5, §6

[2] = test system: human urinary bladder cancer cell line (T-24); assay: Cytotoxicity assay, cell titer glow luminescence, 72 h; type: cell-based; conditions: 72 h
Method: (§7) T-24 Cell line were cultured in McCoy's 5a Medium Modified supplemented with 10% FBS and the PA-1 Cell line was cultured in EMEM Media supplemented with 10% FBS. The assay was performed by plating 5,000 cells/well and incubated at 37° C. overnight. […] Each concentration was added in triplicate and media-only wells used as a control. After incubation for 72 h cell titer glow (Promega) reagent (50 μL) was added to each well and the plates shaken for 5 mins and the luminescence was recorded. Percent viability was determined by dividing luminescence of the treated well by the non-treated well and multiplying by 100. Data was analysed using non-linear regression with a logarithmic scale.
(§8) 5,000 cells/well were plated and incubated at 37° C. overnight. Conjugates/vehicle control dilutions were made in respective media and added to cells. Volume added: 50 uL to each well. Starting treatment concentration was 1 uM for Conjugate of formula 16 and 18, and control SEQ ID NO: 5 alone and 10% for vehicle control (1×PBS with 20% DMA) and then diluted 10-fold down for a total of 11 treatment dilutions. Each concentration was analysed in triplicates. Media-only wells was used as a control to calculate percent viability. Cell titer glow reagent (volume: 50 uL) was added to each well, the plate was shaken for 5 mins and the luminescence was recorded. Drug Treatment Time: 72 hours. Percent viability was calculated by dividing the luminescence signal obtained for each treated well by the untreated well (media-only control) and multiplying by 100.

[3] = test system: ovarian cancer cell line (PA-1); assay: as above; type: cell-based; conditions: 72 h
Method: as §7, §8

A549 Lungs = assay: Cytotoxic effect by MTT assay, 48 h; conditions: for Percent cytotoxicity wrt control: 48 h
Method: as §1, §2, §3, §4, §5, §6

PBMC Normal = assay: Cytotoxic effect by MTT assay, 48 h; conditions: for Percent cytotoxicity wrt control: PBMC, 48 h
Method: as §1, §2, §3

PA-1 cells = assay: Cytotoxicity (cell titer glo, 72 h) ovarian cancer cell line PA-1; type: cell-based; conditions: Homo sapiens, PA-1 cell line
Method: as §7
5,000 cells/well were plated and incubated at 37° C. overnight. Conjugates/vehicle control dilutions were made in respective media and added to cells. Volume added: 50 uL to each well. […] Each concentration was analysed in triplicates. […] Cell titer glow reagent (volume: 50 uL) was added to each well, the plate was shaken for 5 mins and the luminescence was recorded. […] Percent viability was calculated by dividing the luminescence signal obtained for each treated well by the untreated well (media-only control) and multiplying by 100.

CC(=O)N[C@@H]1[C@@H](O[C@@H]2O[C@H](CO)[C@H](O)[C@H](O)[C@H]2O)[C@@H](O)[C@@H](CO)O[C@@H]1O [T antigen, Galβ1-3GalNAcα]
Estimated Kd [1]: 0.319 ug/m
glycan binding [1]: Main binding motifs

COc1cc2c(cc1OCCCCCOc1cc3c(cc1OC)C(=O)N1C=C(C)C[C@H]1[C@H](O)N3C(=O)OCc1ccc(NC(=O)[C@H](C)NC(=O)[C@@H](NC(=O)CCOCCOCCOCCOCCOCCOCCOCCOCCNC(=O)CCN3C(=O)C=CC3=O)C(C)C)cc1)N=C[C@@H]1CC(C)=CN1C2=O [Tesirine]
Percent cytotoxicity wrt control (MG-63 Bone; MG-63, 0.0001 μM): 46.6%
Percent cytotoxicity wrt control (MG-63 Bone; MG-63, 0.001 μM): 69.4%
Percent cytotoxicity wrt control (MG-63 Bone; MG-63, 0.01 μM): 81.2%
Percent cytotoxicity wrt control (MG-63 Bone; MG-63, 1 μM): 82.3%
IC50 (MG-63 Bone; read-out: IC50 Values, MG-63 Bone, after 48 h of treatment): 0.03 nM
Percent cytotoxicity wrt control (AGS Stomach; 0.0001 μM): 66.4%
Percent cytotoxicity wrt control (AGS Stomach; 0.01 μM): 77.8%
Percent cytotoxicity wrt control (AGS Stomach; 0.1 μM): 81.3%
Percent cytotoxicity wrt control (AGS Stomach; 1 μM): 81.3%
Percent cytotoxicity wrt control (AGS Stomach; 10 μM): 81.6%
Percent cytotoxicity wrt control (MDA-MB-231 Breast; MDA-MB-231, 0.001 μM): 41.9%
Percent cytotoxicity wrt control (MDA-MB-231 Breast; MDA-MB-231, 1 μM): 69.2%
IC50 (MDA-MB-231 Breast; read-out: IC50 Values, MDA-MB-231 Breast, after 48 h of treatment): 1.4 nM
Percent cytotoxicity wrt control (T24 Bladder; T24, 0.0001 μM): 57.5%
Percent cytotoxicity wrt control (T24 Bladder; T24, 0.001 μM): 60.6%
Percent cytotoxicity wrt control (T24 Bladder; T24, 0.01 μM): 57.5%
Percent cytotoxicity wrt control (T24 Bladder; T24, 0.1 μM): 61.4%
Percent cytotoxicity wrt control (T24 Bladder; T24, 1 μM): 62.7%
Percent cytotoxicity wrt control (T24 Bladder; T24, 10 μM): 80.4%
IC50 (T24 Bladder; read-out: IC50 Values, T24 Bladder, after 48 h of treatment): 2 nM
Percent cytotoxicity wrt control (U251 MG Brain; 0.001 μM): 26.5%
Percent cytotoxicity wrt control (U251 MG Brain; 0.01 μM): 23.1%
Percent cytotoxicity wrt control (U251 MG Brain; 0.1 μM): 19.2%
Percent cytotoxicity wrt control (U251 MG Brain; 1 μM): 27.2%
Percent cytotoxicity wrt control (U251 MG Brain; 10 μM): 60.5%
IC50 (U251 MG Brain; read-out: IC50 Values, U251 MG Brain, after 48 h of treatment): 6820 nM
Percent cytotoxicity wrt control (PA-1 Ovary; PA-1, 0.001 μM): 66.8%
Percent cytotoxicity wrt control (PA-1 Ovary; PA-1, 0.01 μM): 79.1%
Percent cytotoxicity wrt control (PA-1 Ovary; PA-1, 1 μM): 78.1%
Percent cytotoxicity wrt control (PA-1 Ovary; PA-1, 10 μM): 80.5%
IC50 (PA-1 Ovary; read-out: IC50 Values, PA-1 Ovary, after 48 h of treatment): 0.00599 nM
Percent cytotoxicity wrt control (HT29 Colon; HT29, 0.0001 μM): 37.4%
Percent cytotoxicity wrt control (HT29 Colon; HT29, 0.001 μM): 44.5%
Percent cytotoxicity wrt control (HT29 Colon; HT29, 0.01 μM): 47.7%
Percent cytotoxicity wrt control (HT29 Colon; HT29, 0.1 μM): 48.3%
Percent cytotoxicity wrt control (HT29 Colon; HT29, 1 μM): 49%
IC50 (HT29 Colon; read-out: IC50 Values, HT29 Colon, after 48 h of treatment): 20 nM
Percent cytotoxicity wrt control (PANC-1 Pancreatic; PANC-1, 0.0001 μM): 46.6%
Percent cytotoxicity wrt control (PANC-1 Pancreatic; PANC-1, 0.001 μM): 51.1%
Percent cytotoxicity wrt control (PANC-1 Pancreatic; PANC-1, 0.01 μM): 58.3%
Percent cytotoxicity wrt control (PANC-1 Pancreatic; PANC-1, 0.1 μM): 55%
Percent cytotoxicity wrt control (PANC-1 Pancreatic; PANC-1, 10 μM): 71%
IC50 (PANC-1 Pancreatic; read-out: IC50 Values, PANC-1 Pancreatic, after 48 h of treatment): 0.7 nM
Percent cytotoxicity wrt control (KB Cervix; 0.0001 μM): −9.5%
Percent cytotoxicity wrt control (KB Cervix; 0.001 μM): 1%
Percent cytotoxicity wrt control (KB Cervix; 0.01 μM): 76.2%
Percent cytotoxicity wrt control (KB Cervix; 0.1 μM): 93.8%
Percent cytotoxicity wrt control (KB Cervix; 1 μM): 89.1%
Percent cytotoxicity wrt control (KB Cervix; 10 μM): 92.7%
IC50 (KB Cervix; read-out: IC50 Values, KB Cervix, after 48 h of treatment): 6 nM
IC50 [2]: 145 nM
IC50 [3]: 13.4 nM
Percent cytotoxicity wrt control (A549 Lungs; A549, 0.0001 μM): 13.7%
Percent cytotoxicity wrt control (A549 Lungs; A549, 0.1 μM): 45.2%
Percent cytotoxicity wrt control (A549 Lungs; A549, 1 μM): 53.3%
Percent cytotoxicity wrt control (A549 Lungs; A549, 10 μM): 66.7%
IC50 (A549 Lungs; read-out: IC50 Values, A549 Lungs, after 48 h of treatment): 390 nM
Percent cytotoxicity wrt control (PBMC Normal; 0.0001 μM): 16.9%
Percent cytotoxicity wrt control (PBMC Normal; 0.01 μM): 40.3%
Percent cytotoxicity wrt control (PBMC Normal; 0.1 μM): 38.7%
Percent cytotoxicity wrt control (PBMC Normal; 1 μM): 38.2%
IC50 (PBMC Normal; read-out: IC50 Values, PBMC Normal, after 48 h of treatment): 5090 nM

CC(=O)N[C@H]1[C@H](OC[C@H]2OC(O)[C@H](NC(C)=O)[C@@H](O[C@@H]3O[C@H](CO)[C@H](O)[C@H](O)[C@H]3O)[C@H]2O)O[C@H](CO)[C@@H](O)[C@@H]1O (stereo partly shown) [core 2]
Estimated Kd [1]: 0.212 ug/m
glycan binding [1]: Main binding motifs

CC[C@H](C)[C@@H]([C@@H](CC(=O)N1CCC[C@H]1[C@H](OC)[C@@H](C)C(=O)N[C@H](C)[C@@H](O)c1ccccc1)OC)N(C)C(=O)[C@@H](NC(=O)[C@H](C(C)C)N(C)C(=O)OCc1ccc(NC(=O)[C@H](CCCNC(N)=O)NC(=O)[C@@H](NC(=O)CCCCCN2C(=O)C=CC2=O)C(C)C)cc1)C(C)C [mc-vc-PAB-MMAE] ({Hexanoyl(6-maleimido)}-V[Cit][PABC][NMeV]V[Dil][Dolaproine]-X1)
IC50 [3]: 647 nM
IC50 (PA-1 cells): 647 nM

Sialyl T antigen
Estimated Kd [1]: 0.670 to 1.756 ug/m
glycan binding [1]: Main binding motifs
